The values below come from PubChem BioAssay (NCI).

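Method: 48-hour compound exposure of cells in 96-well plates, five concentrations, linear interpolation of endpoints. GI50 = concentration required for 50% inhibition of growth. TGI marks complete inhibition of growth.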

The GI50 is the concentration at which growth is held to half of that of the control. Usually TGI stands for the concentration giving total growth inhibition. Low values mean more potent growth arrest, high ones less potent growth arrest.

Among the test systems are A549 NSCLC; RXF 393 renal; M14 melanoma; LOX IMVI melanoma; EKVX NSCLC; HCT-116 colon; PC-3 prostate; SK-MEL-5 melanoma; SF-268 CNS; NCI-H23 lung.
What all share (experiment): DTP human tumour cell line panel, 48 h

As to `COc1cc(OC)cc(-c2n/c(=C\c3c(O)[nH]c4ccc(OC)cc34)cc3c2=Nc2ccccc2-3)c1`, the GI50 was 11.6 µM with A549 NSCLC; 5.65 µM in the test on RXF 393 renal; 2.24 µM in the test on M14 melanoma; 3.1 µM in the test with LOX IMVI melanoma; 25.2 µM in the test on EKVX NSCLC; 1.67 µM with HCT-116 colon. The GI50 is 20.5 µM in the test with PC-3 prostate, 12.1 µM in the test on SK-MEL-5 melanoma, 10.2 µM in the test on SF-268 CNS and 2.78 µM in the test on NCI-H23 lung. In addition, the TGI with A549 NSCLC is 26.1 µM; with RXF 393 renal it was 27.2 µM; in the test with M14 melanoma, 4.18 µM; in the test with LOX IMVI melanoma it was 12.8 µM; in the test with EKVX NSCLC it was 80.9 µM; in the test on HCT-116 colon it was 3.16 µM. Besides, the TGI with PC-3 prostate was found to be 62.2 µM; with SK-MEL-5 melanoma, 25.2 µM; in the test on SF-268 CNS it was 41.2 µM; in the test with NCI-H23 lung, 8.47 µM.

Consider `NC(CCOCCP(=O)(O)O)C(=O)O` (stereo unspecified), for which the TGI with A549 NSCLC, with RXF 393 renal, in the test with M14 melanoma, in the test on LOX IMVI melanoma, with EKVX NSCLC and with HCT-116 colon was > 100 µM each time. Besides, the TGI in the test with PC-3 prostate, in the test on SK-MEL-5 melanoma, in the test with SF-268 CNS and in the test on NCI-H23 lung was > 100 µM in each case.

Take `COc1c2c(c3ccccc3c1O)C1C=CC2C1` (stereo unspecified): the TGI is 36.6 µM in the test on A549 NSCLC; 28.9 µM in the test on RXF 393 renal; 27.9 µM with M14 melanoma; 17.1 µM in the test with LOX IMVI melanoma; 33 µM in the test on EKVX NSCLC; 14.6 µM in the test with HCT-116 colon. For the same compound, the TGI was 19.1 µM in the test on SK-MEL-5 melanoma, 33.7 µM in the test with SF-268 CNS and 28.9 µM with NCI-H23 lung.

On to `O=C(N/N=C\c1ccc(N(CCCl)CCCl)cc1[N+](=O)[O-])c1cccnc1`, for which the GI50 with A549 NSCLC, in the test on RXF 393 renal, in the test with M14 melanoma, with LOX IMVI melanoma, with EKVX NSCLC and in the test on HCT-116 colon was > 100 µM throughout. Besides, the GI50 in the test with PC-3 prostate, with SK-MEL-5 melanoma, in the test with SF-268 CNS and in the test with NCI-H23 lung was > 100 µM in each case. Also, the concentration for total growth inhibition (TGI) in the test on A549 NSCLC, with RXF 393 renal, with M14 melanoma, with LOX IMVI melanoma, in the test on EKVX NSCLC and in the test on HCT-116 colon was > 100 µM in each case. Besides, the TGI in the test on PC-3 prostate, in the test with SK-MEL-5 melanoma, in the test on SF-268 CNS and in the test with NCI-H23 lung was > 100 µM throughout.

Take `CCN(CC)CCN1C(=O)c2c(c3c4ccccc4[nH]c3c3ccc4ccccc4c23)C1=O`: the GI50 with RXF 393 renal is 1.42 µM; in the test on EKVX NSCLC, 1.69 µM; with PC-3 prostate, 1.44 µM; with SK-MEL-5 melanoma it was 1.71 µM; in the test with NCI-H23 lung it was 1.69 µM. Further, the TGI in the test on RXF 393 renal is 2.83 µM; in the test with EKVX NSCLC, 3.32 µM; in the test on PC-3 prostate, 3.25 µM; in the test with SK-MEL-5 melanoma, 3.12 µM; with NCI-H23 lung, 3.52 µM.

Take `COC1=CC(=O)CC(C)C12Oc1c(Cl)c(OC)cc(OC)c1C2=O` (stereo unspecified): the concentration for total growth inhibition (TGI) is > 100 µM in the test with A549 NSCLC; 43.3 µM in the test on RXF 393 renal; > 65.7 µM in the test with M14 melanoma; > 100 µM with LOX IMVI melanoma; > 100 µM in the test on EKVX NSCLC; > 93.7 µM in the test with HCT-116 colon. For the same compound, the TGI in the test with PC-3 prostate is > 70.3 µM; in the test on SK-MEL-5 melanoma, > 100 µM; in the test on SF-268 CNS, > 100 µM; with NCI-H23 lung, > 100 µM.

Take `C=C1C(=O)O[C@@H]2[C@H](O)[C@@H](C)[C@@H]3C=CC(=O)[C@@]3(C)[C@@H](OC(=O)/C(C)=C/C)[C@H]12`: the TGI in the test on A549 NSCLC was determined as 13.4 µM; in the test on RXF 393 renal, 1.14 µM; with LOX IMVI melanoma, 2.88 µM; in the test on EKVX NSCLC, 1.93 µM; in the test with HCT-116 colon, 1.03 µM; in the test on SK-MEL-5 melanoma it was 4.43 µM. In addition, the total growth inhibition concentration (TGI) with SF-268 CNS was determined as 3.84 µM; with NCI-H23 lung it was 2.57 µM.

Consider `Cc1ccc(C2=C(C#N)C(N)OC3=C2COc2ccccc23)cc1` (stereo unspecified), for which the TGI is > 100 µM in the test with A549 NSCLC; > 100 µM in the test on M14 melanoma; > 100 µM in the test with LOX IMVI melanoma; 37.4 µM in the test with EKVX NSCLC; > 100 µM with HCT-116 colon; 57.2 µM with PC-3 prostate. Moreover, the total growth inhibition concentration (TGI) was > 100 µM in the test on SK-MEL-5 melanoma, 85.9 µM in the test on SF-268 CNS and > 100 µM with NCI-H23 lung.
